Results taken from ChEMBL document CHEMBL1130784, “Irreversible inhibition of zinc-containing protease by oxazolidinone derivatives. Novel inactivation chemistry” (Bioorg Med Chem Lett, 1998).

Assays:
[1] = Inhibitory activity of against carboxypeptidase A (CPA)
[2] = Kinetic constant against carboxypeptidase A (CPA)
[3] = Partition ratio (Kcat/Kinact) was calculated
[4] = target: T1, Carboxypeptidase A1 (Homo sapiens) (UniProt P15085); assay: Inactivation potency of compound against carboxypeptidase A (CPA)
T1 sequence (whole entry): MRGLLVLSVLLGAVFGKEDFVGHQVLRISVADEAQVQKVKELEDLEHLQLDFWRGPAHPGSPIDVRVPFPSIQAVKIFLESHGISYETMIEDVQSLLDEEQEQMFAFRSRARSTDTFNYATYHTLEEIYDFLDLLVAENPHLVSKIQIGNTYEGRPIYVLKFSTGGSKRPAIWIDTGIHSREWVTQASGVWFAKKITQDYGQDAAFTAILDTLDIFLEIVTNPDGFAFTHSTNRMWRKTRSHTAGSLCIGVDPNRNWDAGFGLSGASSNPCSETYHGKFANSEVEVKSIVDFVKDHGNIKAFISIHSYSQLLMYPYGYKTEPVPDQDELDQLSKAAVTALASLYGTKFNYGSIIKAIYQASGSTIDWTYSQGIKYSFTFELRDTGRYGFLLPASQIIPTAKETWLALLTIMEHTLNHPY

Row | SMILES | Ki [1] [µM] | K inact [2] [min⁻¹] | Ratio [3] | K inact/Ki [4] [M⁻¹ s⁻¹]
1 | O=C1N[C@@H]([C@@H](Cc2ccccc2)C(=O)O)CO1 | 1650 | 0.115 | 94 | 1.52
2 | O=C1N[C@H]([C@H](Cc2ccccc2)C(=O)O)CO1 | 900 | 0.075 | 120 | 1.39
